Assay results as given in patent US20060094674A1, “Combination of mtor inhibitor and a tyrosine kinase inhibitor for the treatment of neoplasms” (priority 2002, published 2006).
Where two headings read alike, the source gives them in different places.

What was measured:
[1] = tested on: Ba/F-FLT3-ITD F691I cells; settings: 48 hours; PKC412 10 nM alone; two-drug combinations at indicated concentrations
Experimental: (§3) Cell proliferation was measured by a [^3H]-thymidine incorporation assay (see FIG. 6C).

[2] = tested on: BCR/ABL-transformed primary B-lymphoblast cells; settings: 24 hours, Imatinib 1 μM, Rapamycin 10 nM; for % of viable cells in phase: G1 / % of viable cells in phase: G2/M / % of viable cells in phase: S / Total % Apoptotic: UO126 5 μM; for Total % Apoptotic: sub-G1 DNA content
Experimental: For cell cycle and apoptosis assays, live cells from randomly growing BCR/ABL-transformed B-lymphoblasts were isolated using Histopaque (Sigma). After washing twice, the cells were resuspended in regular growth medium (RPMI-containing 20% FCS and 50 μM 2-mercaptoethanol), exposed to inhibitors at the indicated concentrations for 24 hours, harvested and fixed in 70% ethanol, for 3 hours at −20 C. Fixed cells were stained with propidium iodide, and cell cycle parameters were analyzed by using FACScan and Modfit LT software.
3 million cells in media as described above and treated with the indicated drugs or left untreated for 24 hours, were fixed, stained with propidium iodide and subject to flow cytometry for cell cycle analysis.

Ba/F-BCR/ABL T315I cells = assay: [3H]-thymidine proliferation assay, Imatinib-resistant Ba/F-BCR/ABL T315I cells; settings: 48 hours
[3] = tested on: bone marrow cells transduced with BCR/ABL-expressing retroviruses; assay: BCR/ABL-evoked myeloid colony formation assay; assay type: cell-based, mice; settings: rapamycin 2 nM, Imatinib 0.5 μM, UO126 2 μM alone, or all three combined; 10 days
[4] = achieved in transplant patients; cited from earlier work
p70 S6K [5] = tested on: p70 S6K
Experimental: (§1) Cells were lysed in a buffer containing Tris-HCl (50 mM, pH 8.0), NaCl (150 mM), NP40 (1% v/v), NaF (10 mM), 2 mM sodium orthovanadate and a cocktail of protease inhibitors, as described previously (Gu et al., Mol. Cell. Biol. 20:7109 (2000)). Cell lysates containing equivalent amounts of protein ([…]) were loaded and separated by SDS-PAGE. Immunoblotting was performed using phospho-specific antibodies reactive with Thr389 of p70 S6K, Ser65 of 4E-BP1 or Thr202/Tyr204 of p44/42 Erk (Cell Signaling Technology, Beverly, Ma.). Detection was by enhanced chemiluminescence (ECL). To control for equal loading, blots were reprobed with antibodies that detect total Erk2 or p70 S6K (Santa Cruz Biotechnology).
(§2) Cell lysates were prepared and equal amounts (50 μg) of protein were resolved by SDS-PAGE followed by immunoblot analysis with the indicated phospho-specific antibodies. To control for loading, the blots were stripped and reprobed with anti-Erk2 antibodies.

[6] = tested on: Ba/F-FLT3-ITD F691I cells
Experimental: as §3

[7] = tested on: murine BCR/ABL disease model; assay: Survival in mouse model of CML (BCR/ABL bone marrow transplantation); assay type: in vivo, BALB/C mice
Experimental: BALB/C donor mice were primed with intraperitoneal injection of 5′ fluorouracil (150 mg/kg). After 5 days, bone marrow cells were collected and transduced with MSCV p210 (BCR/ABL)-IRES-GFP viruses by two rounds of spinfection. After second round of transduction, cells were resuspended in Hanks balanced salt solution and injected (1×10^6 cells/0.5 ml) into the lateral tail vein of lethally irradiated (2×450 cGy) female recipient BALB/C mice. […] All animals in the trial received two gavage treatments and one IP treatment per 24 hours. Treatment was started from day 9 after bone marrow transplantation (BMT) and continued until the mice died. The log rank statistics were used to attach a significance level to the difference in the survival curves.
These mice were censored from the statistical analysis of survival. Peripheral blood was collected from the retroorbital cavity using a heparinized glass capillary. Blood smears were stained with Wright and Giemsa. Manual and automated (ADIVA 120 Hematology system, Bayer) total and differential blood cell counts were performed, as well as histopathologic exam of relevant organs (spleen, liver, heart, lungs, intestine, hindlimb bones, and kidneys). […]

p70 S6K [8] = settings: rapamycin 0.5-5 nM; 18 hours
Experimental: as §1, §2

Erk1/2 kinases [9] = settings: 18 hours; indicated concentrations
Experimental: as §1, §2

Ba/F-BCR/ABL WT cells = settings: rapamycin 5 nM; 48 hours of exposure
[10] = tested on: PTEN-negative human prostate cancer cells (LnCaP); assay: Proliferation (cell number, hemocytometer) of LnCaP cells; assay type: cell-based; settings: rapamycin at indicated concentrations alone or with Imatinib 2 μg/ml; 7 days
Experimental: PTEN-negative human prostate cancer cells (LnCaP) were seeded at 30,000 cells per 6-well cluster (35 mm plate). […] Media was changed every 2 days with fresh drugs. After 7 days, cell number was determined by hemocytometer (see FIG. 10).

K562 cells = assay: [3H]-thymidine proliferation assay, K562 cells; assay type: cell-based, human; settings: rapamycin alone, 5 nM; 60 hours
[11] = tested on: PTEN-positive human prostate cancer cells (CWR22); assay: Proliferation (cell number, hemocytometer) of CWR22 cells; assay type: cell-based; settings: rapamycin at indicated concentrations alone or with Imatinib 2 μg/ml; 7 days
Experimental: PTEN-positive human prostate cancer cells (CWR22) were seeded at 30,000 cells per 6-well cluster (35 mm plate). […] Media was changed every 2 days with fresh drugs. After 7 days, cell number was determined by hemocytometer (see FIG. 9).

Erk1/2 kinases [12] = settings: 18 hours; indicated concentrations; remark: listed apart in the source
Experimental: as §1, §2

4E-BP1 [13] = settings: Imatinib 0.5-4 μM or rapamycin 5 nM alone, or combined
Experimental: as §1

4E-BP1 [14] = assay: Immunoblot of 4E-BP1 phosphorylation in Ba/F-FLT3-ITD cells; assay type: cell-based
Experimental: as §1
The blots were reprobed for p70 S6 kinase and Erk2, respectively, to ensure equivalent loading.

[15] = tested on: BCR/ABL-transformed primary B lymphoblasts; settings: 24 hours; rapamycin 0.25-10 nM alone; Imatinib 0.25-4 μM alone or in combination with rapamycin 2 nM

CO[C@@H]1[C@H](N(C)C(=O)c2ccccc2)C[C@H]2O[C@]1(C)n1c3ccccc3c3c4c(c5c6ccccc6n2c5c31)C(=O)NC4 [PKC412]
effect on cell proliferation [1]: almost no effect

N#CC(=C(/N)Sc1ccccc1N)/C(C#N)=C(/N)Sc1ccccc1N [UO126]
% of viable cells in phase: G1 [2]: 44.6% | % of viable cells in phase: G2/M [2]: 3.8% | % of viable cells in phase: S [2]: 51.6% | Total % Apoptotic [2]: 4.6% | inhibition of proliferation (Ba/F-BCR/ABL T315I cells; UO126 5 μM, Imatinib 0.5 μM, rapamycin 5 nM, alone or in combinations): only modest inhibitory effects | inhibition of BCR/ABL-evoked myeloid colony formation [3]: 16%

Rapamycin
typical serum levels [4]: 5 to 15 nM | inhibition of p70 S6K phosphorylation (p70 S6K [5]; rapamycin 5 nM): totally inhibited p70 S6K phosphorylation | inhibition of p70 S6K activation (p70 S6K [5]; rapamycin 0.5-5 nM, 18 hours): almost completely inhibited activation of p70 S6K | inhibition [6]: 68% | % of viable cells in phase: G1 [2]: 79.9% | % of viable cells in phase: G2/M [2]: 1.8% | % of viable cells in phase: S [2]: 18.3% | Total % Apoptotic [2]: 8.6% | effect on cell cycle and apoptosis ([2]; alone or combined): G1 arrest, but no significant apoptosis | survival versus double placebo, p (log rank) ([7]; Rapamycin 7.0 mg/kg/day intraperitoneal or Imatinib 70 mg/kg/day oral gavage, each plus placebo): 0.04 | survival ([7]; Rapamycin 7.0 mg/kg/day intraperitoneal, Imatinib 70 mg/kg/day oral gavage, from day 9 after BMT): survived longer than those treated with double placebo | inhibition of p70 S6K activation (p70 S6K [8]): almost completely inhibited activation of p70 S6K | inhibition of Erk activation (Erk1/2 kinases [9]): did not inhibit Erk activation | inhibition of proliferation (Ba/F-BCR/ABL WT cells): ~60% | inhibitory effect on proliferation of prostate cancer cells [10]: significant inhibitory effect on proliferation | inhibition of [3H]-thymidine incorporation (K562 cells): ~25% | inhibitory effect on proliferation of prostate cancer cells [11]: significant inhibitory effect on proliferation | inhibition of Erk activation (Erk1/2 kinases [12]): did not inhibit Erk activation | inhibition of 4E-BP1 phosphorylation (4E-BP1 [13]): partial inhibition of 4E-BP1phosphorylation | inhibition of proliferation (Ba/F-BCR/ABL T315I cells; rapamycin 5 nM alone): about 70% | resistance of 4E-BP1 phosphorylation to rapamycin relative to p70 S6K (4E-BP1 [14]): > 10 fold | inhibition of cell proliferation ([3H]-thymidine incorporation) [15]: inhibited the proliferation of these cells at doses significantly below typical serum levels
